The text below walks through data of ChEMBL document CHEMBL1201862, “PubChem BioAssay data set” (2004).

Common to all, as to assay: NCI anticancer screen, dose series, 48 h
In test [1] the test system is 786-0.
Test [2] deals with A498.
For test [3], the system named is A549.
The subject of test [4] is BT-549.
The test system of test [5] is CCRF-CEM.
Test [6] has as its system EKVX.
The subject of test [7] is HCT-116.
The subject of test [8] is HCT-15.
Test [9] relates to HT-29.
Test [10] concerns Hs-578T.
Test [11] concerns LOX IMVI.
For test [12], the system named is M14.
The subject of test [13] is MDA-MB-435.
Test [14] relates to MOLT-4.
In test [15] the test system is Malme-3M.
Test [16] deals with NCI-H23.
Test [17] has as its system OVCAR-3.
The subject of test [18] is SK-MEL-2.
Test [19] deals with SK-MEL-5.
Test [20] has as its system SR.

The structures appear in SMILES notation.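 1) Cells in 96-well plates. 2) Compound, 48 h, 5 concentrations. 3) Linear interpolation between surrounding doses. 4) Unreached endpoint = highest concentration. At the GI50, growth is halved.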 Activity calls are given as the source filed them. Cut-off read from the data, not from the text of the source: active = GI50 up to about 1.1 µM and inactive = higher.

In the case of `O=[N+]([O-])c1c(F)c(F)c2c(c1F)N(CCCCCl)c1ccccc1S2`, the GI50 in [1] was 9.02 µM (inactive); in [2], 8.81 µM (inactive); in test [3], 14.4 µM (inactive); in test [4], 14.6 µM (inactive); in test [5], 2.38 µM (inactive); in [6], 21.7 µM (inactive). The GI50 was 5.05 µM (inactive) in test [7]; 1.6 µM in test [8]; 2.54 µM (inactive) in [9]; 24.8 µM (inactive) in [10]; 1.58 µM (inactive) in test [11]; 4.83 µM (inactive) in test [12]. Moreover, the GI50 is 7.71 µM (inactive) in test [13]; 2.77 µM (inactive) in [14]; 16.6 µM (inactive) in [15]; 7.91 µM (inactive) in [16]; 7.01 µM (inactive) in test [17]; 3.63 µM (inactive) in test [18]. For the same molecule, the GI50 in [19] was 12.2 µM (inactive); in test [20] it was 1.89 µM (inactive).

Turning to `COc1cc([C@@H]2c3[nH]c4ccccc4c3C(Nc3ccc([N+](=O)[O-])cc3)[C@H]3COC(=O)N23)cc(OC)c1O` (stereo not given in full), the GI50 in test [1] was 0.177 µM (active); in test [2], 0.14 µM (active); in test [3], 0.0531 µM (active); in [4], 0.611 µM (active); in test [5], 0.0395 µM (active); in test [6], 1.78 µM (inactive). Also, the GI50 in test [7] is 0.365 µM (active); in [8] it was 1.96 µM; in test [9], 0.228 µM (active); in test [10], 0.305 µM (active); in [11], 0.0822 µM (active); in test [12], 0.321 µM (active). The GI50 in test [13] was 0.505 µM (active); in test [14], 0.014 µM (active); in [15] it was 0.161 µM (active); in test [16] it was 0.111 µM (active); in test [17], 0.382 µM (active); in test [18], 0.847 µM (active). The GI50 is 0.0914 µM (active) in test [19] and 0.0481 µM (active) in test [20].

Turning to `CC(=O)O/C(=C1\C[C@H]2[C@@H]3CC=C4C[C@@H](OC(C)=O)CC[C@]4(C)[C@H]3CC[C@]2(C)C1=O)C(F)(F)F`, the GI50 in test [1] is 8.53 µM (inactive); in test [2] it was 19.3 µM (inactive); in test [3], 15.3 µM (inactive); in test [4], 12.2 µM (inactive); in [5] it was 1.95 µM (inactive); in test [6], 12.7 µM (inactive). The GI50 was 6.15 µM (inactive) in test [7]; 4.03 µM in test [8]; 10.1 µM (inactive) in [9]; 7 µM (inactive) in test [10]; 1.86 µM (inactive) in [11]; 7.19 µM (inactive) in test [12]. The GI50 is 7.85 µM (inactive) in test [13]; 2.59 µM (inactive) in [14]; 3.56 µM (inactive) in test [15]; 6.85 µM (inactive) in test [16]; 5.87 µM (inactive) in [17]; 7.62 µM (inactive) in test [18]. For the same molecule, the GI50 was 6.08 µM (inactive) in test [19] and 2.88 µM (inactive) in test [20].

On to `COC(=O)C1(C)CCCC2(C)c3cc(OC)ccc3C(=O)C(Br)C12` (stereo not given), for which the GI50 in [1] is 1.84 µM (inactive); in [2], > 10 µM (inactive); in test [3] it was > 10 µM (inactive); in test [4] it was > 10 µM (inactive); in test [5] it was 2.29 µM (inactive); in test [6], > 10 µM (inactive). The GI50 was 2.79 µM (inactive) in test [7]; over 10 µM in [8]; 4.75 µM (inactive) in test [9]; > 10 µM (inactive) in test [10]; > 10 µM (inactive) in test [11]; 3.35 µM (inactive) in test [12]. Also, the GI50 was 4.19 µM (inactive) in test [13]; 1.75 µM (inactive) in [14]; 2.72 µM (inactive) in [15]; > 10 µM (inactive) in test [16]; 5.35 µM (inactive) in test [17]; > 10 µM (inactive) in test [18]. The figures for the GI50 in test [19] and in test [20] were > 10 µM (inactive) and 2.76 µM (inactive), respectively.

With `CC(=O)c1cccc(NC(=O)C(=O)c2c(O)oc3ccccc3c2=O)c1`, the GI50 in test [1], in test [2], in test [3], in [4], in test [5] and in test [6] was > 100 µM (inactive) each time. Besides, the GI50 in [7] is > 100 µM (inactive); in test [8], over 100 µM; in test [9], > 100 µM (inactive); in [10], > 100 µM (inactive); in test [11] it was > 100 µM (inactive); in test [12], > 100 µM (inactive). In addition, the GI50 in test [13] is > 100 µM (inactive); in test [14], > 100 µM (inactive); in [15], > 100 µM (inactive); in [16], > 100 µM (inactive); in test [17] it was > 100 µM (inactive); in test [18], 10 µM (inactive). The GI50 in test [19] and in test [20] was > 100 µM (inactive) each time.

Consider `O=[N+]([O-])c1cc(-c2ccc([As](=O)(O)O)cc2)ccc1[As](=O)(O)O`, for which the GI50 in test [1], in test [2], in [3], in [4], in test [5] and in test [6] was > 100 µM (inactive) in each case. For the same molecule, the GI50 in test [7] is > 100 µM (inactive); in test [8] it was over 100 µM; in test [9], > 100 µM (inactive); in test [10] it was > 100 µM (inactive); in test [11] it was > 100 µM (inactive); in test [12], > 100 µM (inactive). In addition, the GI50 in test [13], in [14], in [15], in [16], in test [17] and in [18] was > 100 µM (inactive) throughout. The GI50 in test [19] and in test [20] was > 100 µM (inactive) in each case.
